In patent publication US5136093A, “Quaternized panthenol compounds and their use” (priority 1991, dated 1992):
“Also recorded” adds a separate entry of the source.

Key:
[1] = Rubine dye uptake (substantivity) on human hair swatches/tresses; settings: for Rubine dye uptake / uptake with respect to the positive control: 50% aqueous solution (panthenol) or 50% solids aqueous solution; for Rubine dye uptake: Demeo Natural White Hair, read at 520 nm; for uptake with respect to the positive control: relative to positive control; for greater uptake than the unquaternized panthenol: human hair swatches
Description: In the following Examples, the qualitative test for measuring the substantivity of the compounds on hair was the Rubine Dye Test using Pyrazol Fast Bordeaux, as described in U.S. Pat. No. 3,769,398 to Hewitt and Crawford et al. J. Soc. Cosmet. Chem. 31, 273-278 (1980), the entire disclosures of which are incorporated herein by reference. The intensity of the residual pink color, after rinsing, on a hair swatch previously treated with the compound, is an indication of the degree of deposition of the compound onto the hair. Absence of pink color points to a lack of substantivity.
In a one liter reaction flask, fitted with a stirrer, thermometer reflux condenser, heating mantle and a feed funnel, 205 grams of deionized water was charged. 205 grams (1 mole) of d,l-panthenol was charged in the water and stirred until dissolved. In a separate, stirred, one liter vessel, 376 grams (1 mole) of 50% aqueous QUAB 188 (3-Chloro-2-hydroxypropyl trimethylammonium chloride) was reacted with approximately 80 grams (1 mole) of 50% aqueous sodium hydroxide solution, to form a solution of QUAB 151 (2, 3-Epoxypropyl trimethyl ammonium chloride), to a pH of ^~ 9.5. The batch was heated to 50°-60° C., and the QUAB 151 solution was added to the panthenol solution through the feed funnel. The pH of the reaction mixture was checked, and adjusted to ^~ 9.5 with a small additional amount of 50% sodium hydroxide solution, as required. The batch was then agitated at 50°-60° C. for a four hour period to assure complete reaction. The pH of the batch was then adjusted to 6.5-8.0 with a small amount of lactic acid. The resultant product was a clear yellow solution, containing approximately 50% of trimethyl quaternized panthenol.
In a two liter reaction flask, fitted with a stirrer, thermometer, reflux condenser, heating mantle and a feed funnel, 205 grams of deionized water was charged. 205 grams (1 mole) of d,l- panthenol was charged into the water and stirred until dissolved. In a separate stirred one liter vessel, 852 grams (1 mole) of 50% aqueous QUAB 426 (3-Chloro-2-hydroxypropyl stearyl dimethylammonium chloride) was reacted with approximately 80 grams (1 mole) of 50% aqueous sodium hydroxide solution, to form a solution of QUAB 393 (2,3-Epoxypropyl stearyl dimethyl ammonium chloride), to a pH of ^~ 9.5. The batch was heated to 50°-60° C., and the QUAB 393 solution was added to the panthenol solution through the feed funnel. The pH of the reaction mixture was checked, and adjusted to ^~ 9.5 with a small additional amount of 50% sodium hydroxide solution, as required. The batch was then agitated at 50°-60° C. for a four hour period to assure complete reaction. The pH of the batch was then adjusted to 6.5-8.0 with a small amount of lactic acid. The resultant product was a clear yellow solution, containing approximately 50% solids, of which approximately 43% was stearyl dimethyl quaternized panthenol.
Rubine Dye uptake as a measure of substantivity.
Four tresses of Demeo Natural White Hair weighing approximately 0.5 grams each were immersed in 15 grams of the appropriate solution (i.e. positive control, negative control and test samples) for a period of not less than 5 minutes. Each tress was then rinsed five times with 100 ml of water at 120° F.
The tresses were then immersed in a solution of fast Rubine dye for 15 minutes, rinsed five times with 100 ml of water at 105° F., then air dried overnight on filter paper. Each tress was weighed directly into a tared beaker. The dye was stripped from the hair and the solution then brought to the volume with deionized water. The transmission of each sample was then read at 520 nm and its absorbance adjusted to the weight of the hair sample. The dye concentration was calculated from a standard calibration curve.

[2] = aqueous solutions; hydrolysis increases as pH varies from optimum; cited from earlier work
[3] = Compatibility with formulation ingredients; type: physicochemical; settings: in finished cosmetic formulation
Protocol: Procedure: The water was weighed into a beaker. Each Phase A ingredient was then added to the water phase in the order listed and mixed thoroughly after the addition of each ingredient. The fragrance was dissolved in the alcohol and Phase B was added to Phase A and mixed until clear and uniform.
Procedure: Phase A was heated to 55° C. Phase B was added and mixed until uniform. Phase C ingredients were added in the order listed and mixed until uniform. When the batch cooled to 45° C., Phase E and Phase F were added and the batch was mixed until uniform. The pH was adjusted with Citric Acid. Phase H was added and the batch was mixed until uniform.
Procedure: The Siltech C-2145CG emulsion was predispersed in the Phase A water in a beaker. The Phase "B" ingredients were dissolved one at a time into the remainder of the water and mixed until clear. Phase "C" ingredients were mixed until clear and uniform. Phase "A" was added to Phase "B" with agitation. Then Phase "C" and "D" were added and the batch was mixed until uniform.
Procedure: Phase A was weighed into a beaker and was then mixed until clear and uniform. Phase B and then Phase C were added to Phase A while mixing. The batch was mixed until clear and uniform.
Procedure: Ucare Polymer JR was dispersed in the water. After the polymer was dispersed, the Methylparaben was added. Phase A was then heated to 60° C. […]

| SMILES | Rubine dye uptake [1] | uptake with respect to the positive control [1] [%] | optimum pH for stability [2] | further results |
| --- | --- | --- | --- | --- |
| CC(C)(CO)C(O)C(=O)NCCCO (stereo not shown) [Panthenol] | 52.35 mg of dye/50 gm of hair | 36.91 |  |  |
| CC(C)(CO)[C@@H](O)C(=O)NCCCO [d-Panthenol] |  |  | approximately 6 |  |
| CCCCCCCCCCCCCCCCCC[N+](C)(C)CC(O)COCC(C)(C)C(O)C(=O)NCCCO (racemic) [stearyl dimethyl quaternized panthenol] | 66.30 mg of dye/50 gm of hair | 46.74 |  | greater uptake than the unquaternized panthenol, adjusted for concentration of active material ([1]; 50% solids aqueous solution vs panthenol 50% aqueous solution, adjusted for concentration of active material): ~31%; greater uptake than the unquaternized panthenol ([1]; versus a 50% panthenol solution, not adjusted for active material): ~27%; compatibility with other ingredients [3]: compatible with the anionic surfactants that make up the shampoo; also recorded: compatible with the cationic silicone emulsion (Siltech E-2145CG) and with the hair fixative polymer; also recorded: compatible with the hair fixative polymer and with the ethanol; also recorded: compatible with the other cationic ingredients in the formula; also recorded: compatible with all of the nonionic ingredients in the formula; also recorded: compatible with the anionic soaps and surfactants in the Neutrogena™ soap bar |
| CC(C)(COCC(O)C[N+](C)(C)C)C(O)C(=O)NCCCO (racemic) [trimethyl quaternized panthenol] |  |  |  | greater uptake than the unquaternized panthenol ([1]; versus panthenol solution of comparable concentration): ~7% |
| CC(C)(CO)C(O)C(=O)NCCCO (racemic) [d,l-Panthenol] |  |  | approximately 6 |  |
